Results as given in US12343326B2, “Psychoactive medicines and their use for treating psychiatric and neurological conditions and disorders” (Transcend Therapeutics, Inc., priority 2021, dated 2025).

What was measured:
Assay in all cases: β-arrestin based GPCR screen (PathHunter / GPCRmax), antagonist mode
168 GPCRs [1] = target: 168 GPCRs (Homo sapiens, UniProt P30988); settings: Antagonist
168 GPCRs [2] = target: 168 GPCRs (Homo sapiens, UniProt P32745)
168 GPCRs [3] = target: 168 GPCRs (Homo sapiens, UniProt P47871); settings: GCGR
168 GPCRs [4] = target: 168 GPCRs (Homo sapiens, UniProt P18089); settings: ADRA2B, Antagonist
168 GPCRs (Homo sapiens, UniProt P18089), sequence (P18089 whole entry): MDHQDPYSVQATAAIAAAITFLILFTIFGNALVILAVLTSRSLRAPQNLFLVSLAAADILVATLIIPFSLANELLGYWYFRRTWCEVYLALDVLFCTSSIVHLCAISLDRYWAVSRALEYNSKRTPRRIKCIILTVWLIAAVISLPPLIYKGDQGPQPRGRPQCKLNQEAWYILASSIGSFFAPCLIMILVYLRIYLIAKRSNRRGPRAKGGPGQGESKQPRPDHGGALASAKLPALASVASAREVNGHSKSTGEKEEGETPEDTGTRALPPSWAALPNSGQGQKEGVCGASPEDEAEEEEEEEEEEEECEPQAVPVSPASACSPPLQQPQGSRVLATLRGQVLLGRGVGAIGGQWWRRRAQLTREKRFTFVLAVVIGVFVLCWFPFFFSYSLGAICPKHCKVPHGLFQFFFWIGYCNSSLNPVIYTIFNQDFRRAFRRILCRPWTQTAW

168 GPCRs [5] = target: 168 GPCRs (Homo sapiens, UniProt P49190)
168 GPCRs [6] = target: 168 GPCRs (Homo sapiens, UniProt P21728)
168 GPCRs (Homo sapiens, UniProt P21728), sequence (P21728 whole entry): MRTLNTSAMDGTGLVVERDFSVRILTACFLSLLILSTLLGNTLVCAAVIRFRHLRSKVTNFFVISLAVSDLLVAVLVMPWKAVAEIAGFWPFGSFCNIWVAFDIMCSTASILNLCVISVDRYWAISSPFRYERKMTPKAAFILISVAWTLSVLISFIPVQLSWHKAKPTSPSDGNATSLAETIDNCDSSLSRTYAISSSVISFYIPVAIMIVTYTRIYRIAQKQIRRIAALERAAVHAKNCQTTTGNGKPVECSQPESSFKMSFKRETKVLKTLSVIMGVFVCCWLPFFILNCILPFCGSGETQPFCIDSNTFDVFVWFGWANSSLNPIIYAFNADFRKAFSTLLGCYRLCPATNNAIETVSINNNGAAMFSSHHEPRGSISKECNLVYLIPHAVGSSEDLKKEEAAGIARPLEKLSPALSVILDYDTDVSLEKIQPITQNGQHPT

168 GPCRs [7] = target: 168 GPCRs (Homo sapiens, UniProt P51679); settings: CCR4, Antagonist
168 GPCRs [8] = target: 168 GPCRs (Homo sapiens, UniProt P25105); settings: PTAFR
168 GPCRs (Homo sapiens, UniProt P25105), sequence (P25105 whole entry): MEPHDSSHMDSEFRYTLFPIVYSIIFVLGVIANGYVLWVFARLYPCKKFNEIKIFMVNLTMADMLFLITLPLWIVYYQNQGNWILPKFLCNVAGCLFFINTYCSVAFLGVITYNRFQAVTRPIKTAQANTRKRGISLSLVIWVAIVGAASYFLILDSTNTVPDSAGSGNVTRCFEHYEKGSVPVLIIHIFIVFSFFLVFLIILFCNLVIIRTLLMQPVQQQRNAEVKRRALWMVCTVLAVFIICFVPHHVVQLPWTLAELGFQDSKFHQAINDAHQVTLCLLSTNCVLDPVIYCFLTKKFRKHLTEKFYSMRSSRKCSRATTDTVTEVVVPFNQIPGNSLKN

168 GPCRs [9] = target: 168 GPCRs (Homo sapiens, UniProt P08913); settings: ADRA2A, Antagonist
168 GPCRs (Homo sapiens, UniProt P08913), sequence (P08913 whole entry): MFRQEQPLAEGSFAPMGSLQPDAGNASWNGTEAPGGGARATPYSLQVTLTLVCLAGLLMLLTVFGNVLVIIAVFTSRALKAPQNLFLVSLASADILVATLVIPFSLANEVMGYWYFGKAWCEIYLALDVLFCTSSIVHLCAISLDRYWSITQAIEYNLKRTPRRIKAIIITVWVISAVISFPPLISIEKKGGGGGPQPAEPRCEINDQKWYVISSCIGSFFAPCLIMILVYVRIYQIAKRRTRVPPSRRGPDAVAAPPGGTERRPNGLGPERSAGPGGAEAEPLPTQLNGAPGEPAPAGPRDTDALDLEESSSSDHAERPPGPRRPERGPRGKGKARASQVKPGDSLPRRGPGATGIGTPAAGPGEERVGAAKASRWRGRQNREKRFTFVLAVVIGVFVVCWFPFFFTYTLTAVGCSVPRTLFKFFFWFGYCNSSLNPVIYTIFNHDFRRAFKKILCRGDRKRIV

168 GPCRs [10] = target: 168 GPCRs (Homo sapiens, UniProt P25024)
168 GPCRs (Homo sapiens, UniProt P25024), sequence (P25024 whole entry): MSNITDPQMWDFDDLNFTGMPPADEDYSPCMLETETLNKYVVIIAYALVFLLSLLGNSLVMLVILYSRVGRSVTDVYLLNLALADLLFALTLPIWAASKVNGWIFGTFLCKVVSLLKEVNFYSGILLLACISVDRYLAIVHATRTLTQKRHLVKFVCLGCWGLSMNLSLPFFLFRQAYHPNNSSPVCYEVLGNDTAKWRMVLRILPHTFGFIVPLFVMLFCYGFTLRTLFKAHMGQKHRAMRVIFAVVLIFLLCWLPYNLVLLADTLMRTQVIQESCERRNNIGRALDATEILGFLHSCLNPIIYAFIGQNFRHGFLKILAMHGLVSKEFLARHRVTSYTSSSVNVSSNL

168 GPCRs [11] = target: 168 GPCRs (Homo sapiens, UniProt Q8TDV5)
168 GPCRs (Homo sapiens, UniProt Q8TDV5), sequence (Q8TDV5 whole entry): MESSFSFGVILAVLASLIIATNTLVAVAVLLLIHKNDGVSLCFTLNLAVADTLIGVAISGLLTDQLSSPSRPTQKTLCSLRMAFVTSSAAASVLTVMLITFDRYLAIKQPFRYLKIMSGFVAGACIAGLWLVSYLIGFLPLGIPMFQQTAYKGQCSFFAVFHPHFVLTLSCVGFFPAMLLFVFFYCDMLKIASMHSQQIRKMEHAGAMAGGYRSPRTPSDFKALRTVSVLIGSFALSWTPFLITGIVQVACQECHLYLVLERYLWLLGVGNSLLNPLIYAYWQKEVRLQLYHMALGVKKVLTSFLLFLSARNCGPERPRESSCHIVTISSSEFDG

168 GPCRs [12] = target: 168 GPCRs (Homo sapiens, UniProt P32246); settings: CCR1, Antagonist
168 GPCRs [13] = target: 168 GPCRs (Homo sapiens, UniProt P48145)
168 GPCRs (Homo sapiens, UniProt P48145), sequence (P48145 whole entry): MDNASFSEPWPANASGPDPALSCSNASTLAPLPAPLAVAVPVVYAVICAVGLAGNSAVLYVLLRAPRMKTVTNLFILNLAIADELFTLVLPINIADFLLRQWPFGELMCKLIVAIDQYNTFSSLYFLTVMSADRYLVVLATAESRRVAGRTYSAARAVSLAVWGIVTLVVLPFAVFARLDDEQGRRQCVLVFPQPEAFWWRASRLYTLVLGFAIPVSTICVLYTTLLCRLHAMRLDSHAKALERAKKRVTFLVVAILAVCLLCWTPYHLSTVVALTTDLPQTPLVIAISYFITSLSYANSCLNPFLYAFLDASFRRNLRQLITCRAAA

168 GPCRs [14] = target: T1, 168 GPCRs (Homo sapiens, UniProt Q5NUL3)
T1 sequence (Q5NUL3 1-361): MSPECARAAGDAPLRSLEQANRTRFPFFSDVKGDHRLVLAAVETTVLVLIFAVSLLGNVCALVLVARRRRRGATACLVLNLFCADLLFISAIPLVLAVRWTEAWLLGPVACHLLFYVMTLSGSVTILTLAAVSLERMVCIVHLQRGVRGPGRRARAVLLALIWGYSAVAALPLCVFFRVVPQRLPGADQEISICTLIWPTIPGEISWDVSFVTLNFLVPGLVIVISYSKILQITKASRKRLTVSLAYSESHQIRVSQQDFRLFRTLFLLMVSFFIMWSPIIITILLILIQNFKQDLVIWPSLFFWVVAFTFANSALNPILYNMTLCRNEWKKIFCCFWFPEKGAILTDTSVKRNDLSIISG

168 GPCRs [15] = target: 168 GPCRs (Homo sapiens, UniProt P34981); settings: TRHR
168 GPCRs (Homo sapiens, UniProt P34981), sequence (P34981 whole entry): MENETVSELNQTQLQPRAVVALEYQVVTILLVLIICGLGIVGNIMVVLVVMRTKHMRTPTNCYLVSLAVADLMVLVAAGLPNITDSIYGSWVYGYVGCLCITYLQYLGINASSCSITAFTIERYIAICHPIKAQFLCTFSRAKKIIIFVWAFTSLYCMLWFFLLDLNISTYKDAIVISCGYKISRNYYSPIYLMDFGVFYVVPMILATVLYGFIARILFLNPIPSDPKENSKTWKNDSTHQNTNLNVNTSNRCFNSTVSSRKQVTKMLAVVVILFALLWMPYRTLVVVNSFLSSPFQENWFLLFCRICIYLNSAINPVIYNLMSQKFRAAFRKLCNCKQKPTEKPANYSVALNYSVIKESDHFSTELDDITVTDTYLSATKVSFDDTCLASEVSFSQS

168 GPCRs [16] = target: 168 GPCRs (Homo sapiens, UniProt P41231)
168 GPCRs (Homo sapiens, UniProt P41231), sequence (P41231 whole entry): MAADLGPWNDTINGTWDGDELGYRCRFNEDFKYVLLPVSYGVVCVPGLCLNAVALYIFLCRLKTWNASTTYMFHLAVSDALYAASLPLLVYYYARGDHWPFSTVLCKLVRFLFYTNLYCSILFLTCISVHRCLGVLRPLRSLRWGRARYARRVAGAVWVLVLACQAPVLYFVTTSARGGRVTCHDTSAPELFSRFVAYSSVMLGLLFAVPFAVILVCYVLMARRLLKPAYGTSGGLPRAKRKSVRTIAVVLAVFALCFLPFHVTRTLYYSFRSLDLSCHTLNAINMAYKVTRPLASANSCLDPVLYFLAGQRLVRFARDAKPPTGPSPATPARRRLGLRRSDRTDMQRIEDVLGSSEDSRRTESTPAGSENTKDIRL

168 GPCRs [17] = target: 168 GPCRs (Homo sapiens, UniProt P30550); settings: GRPR
168 GPCRs [18] = target: 168 GPCRs (Homo sapiens, UniProt P43088); settings: PTGFR
168 GPCRs [19] = target: 168 GPCRs (Homo sapiens, UniProt P28336); settings: NMBR
168 GPCRs (Homo sapiens, UniProt P28336), sequence (P28336 whole entry): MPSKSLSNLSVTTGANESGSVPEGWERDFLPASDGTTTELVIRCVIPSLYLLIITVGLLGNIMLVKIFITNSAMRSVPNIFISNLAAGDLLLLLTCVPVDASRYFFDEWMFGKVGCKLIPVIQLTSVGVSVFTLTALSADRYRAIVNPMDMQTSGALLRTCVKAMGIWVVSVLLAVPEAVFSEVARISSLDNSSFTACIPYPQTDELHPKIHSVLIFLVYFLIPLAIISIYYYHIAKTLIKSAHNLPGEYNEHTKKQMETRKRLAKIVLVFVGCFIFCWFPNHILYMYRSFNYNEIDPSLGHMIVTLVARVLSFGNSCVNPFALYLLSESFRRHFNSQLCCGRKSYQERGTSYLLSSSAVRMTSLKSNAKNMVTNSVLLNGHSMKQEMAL

168 GPCRs (Homo sapiens, UniProt P30988), sequence (P30988 25-474): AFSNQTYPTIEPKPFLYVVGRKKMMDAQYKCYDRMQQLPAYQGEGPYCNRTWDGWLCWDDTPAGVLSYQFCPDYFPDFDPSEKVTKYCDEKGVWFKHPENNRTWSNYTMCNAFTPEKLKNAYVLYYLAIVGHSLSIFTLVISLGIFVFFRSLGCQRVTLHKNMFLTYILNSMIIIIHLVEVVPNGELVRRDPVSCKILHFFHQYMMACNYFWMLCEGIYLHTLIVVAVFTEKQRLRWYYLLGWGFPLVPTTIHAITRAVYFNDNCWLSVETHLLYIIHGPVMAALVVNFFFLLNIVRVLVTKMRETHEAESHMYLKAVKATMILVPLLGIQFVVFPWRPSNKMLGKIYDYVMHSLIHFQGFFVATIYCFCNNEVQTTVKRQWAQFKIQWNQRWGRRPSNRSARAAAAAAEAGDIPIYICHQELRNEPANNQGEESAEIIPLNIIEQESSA
168 GPCRs (Homo sapiens, UniProt P32745), sequence (P32745 whole entry): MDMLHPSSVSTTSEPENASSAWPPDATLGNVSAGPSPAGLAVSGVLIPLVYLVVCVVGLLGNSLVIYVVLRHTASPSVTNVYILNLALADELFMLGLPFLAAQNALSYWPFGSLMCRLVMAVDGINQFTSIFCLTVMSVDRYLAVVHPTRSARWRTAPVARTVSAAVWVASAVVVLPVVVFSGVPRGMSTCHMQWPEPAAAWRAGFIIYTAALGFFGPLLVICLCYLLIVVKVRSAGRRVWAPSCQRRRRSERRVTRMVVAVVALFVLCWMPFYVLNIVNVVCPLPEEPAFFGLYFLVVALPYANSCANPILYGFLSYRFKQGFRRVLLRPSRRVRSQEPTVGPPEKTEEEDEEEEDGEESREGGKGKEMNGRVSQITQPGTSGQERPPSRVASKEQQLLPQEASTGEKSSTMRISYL

Q: Which results are given for `CNC(C)C(=O)c1ccc2c(c1)OCO2` (stereo not drawn) [methylone, 3,4-methylenedioxy-N-methylcathinone]?
A: activity at 1 µM (168 GPCRs [1]; CALCR-RAMP2): -10.6%; activity at 10 µM (168 GPCRs [1]; CALCR-RAMP2): -19.6%; activity at 1 µM (168 GPCRs [1]; CALCR-RAMP3): -8.9%; activity at 10 µM (168 GPCRs [1]; CALCR-RAMP3): 3.3%; activity at 1 µM (168 GPCRs [1]; CALCR): 5.4%; activity at 10 µM (168 GPCRs [1]; CALCR): -4.4%; activity at 10 µM (168 GPCRs [2]; SSTR3, Antagonist mode, 10 uM): 8%; activity at 1 µM (168 GPCRs [2]; SSTR3, Antagonist, 1 uM): 13.2%; activity at 10 µM (168 GPCRs [3]; Antagonist mode, 10 uM): -7.7%; activity at 1 µM (168 GPCRs [3]; Antagonist, 1 uM): -16%; activity at 1 µM (168 GPCRs [4]; 1 uM): 8.5%; activity at 10 µM (168 GPCRs [4]; 10 uM): 6.3%; activity at 10 µM (168 GPCRs [5]; PTHR2, Antagonist mode, 10 uM): -0.2%; activity at 1 µM (168 GPCRs [5]; PTHR2, Antagonist, 1 uM): -1%; activity at 10 µM (168 GPCRs [6]; DRD1, Antagonist mode, 10 uM): 7.8%; activity at 1 µM (168 GPCRs [6]; DRD1, Antagonist, 1 uM): 6%; activity at 1 µM (168 GPCRs [7]; 1 uM): 10%; activity at 10 µM (168 GPCRs [7]; 10 uM): 9.5%; activity at 10 µM (168 GPCRs [8]; Antagonist mode, 10 uM): -6.7%; activity at 1 µM (168 GPCRs [8]; Antagonist, 1 uM): 2%; activity at 1 µM (168 GPCRs [9]; 1 uM): -4.6%; activity at 10 µM (168 GPCRs [9]; 10 uM): 1.9%; activity at 10 µM (168 GPCRs [10]; CXCR1, Antagonist mode, 10 uM): 3.1%; activity at 1 µM (168 GPCRs [10]; CXCR1, Antagonist, 1 uM): 12.1%; activity at 10 µM (168 GPCRs [11]; GPR119, Antagonist mode, 10 uM): -8.8%; activity at 1 µM (168 GPCRs [11]; GPR119, Antagonist, 1 uM): 17.1%; activity at 1 µM (168 GPCRs [12]; 1 uM): -8.1%; activity at 10 µM (168 GPCRs [12]; 10 uM): -16.6%; activity at 10 µM (168 GPCRs [13]; NPBWR1, Antagonist mode, 10 uM): 25.1%; activity at 1 µM (168 GPCRs [13]; NPBWR1, Antagonist, 1 uM): 17.1%; activity at 10 µM (168 GPCRs [14]; GPR120, Antagonist mode, 10 uM): 40.3%; activity at 1 µM (168 GPCRs [14]; GPR120, Antagonist, 1 uM): 46.5%; activity at 10 µM (168 GPCRs [15]; Antagonist mode, 10 uM): 2.8%; activity at 1 µM (168 GPCRs [15]; Antagonist, 1 uM): -7.2%; activity at 10 µM (168 GPCRs [16]; P2RY2, Antagonist mode, 10 uM): 1.8%; activity at 1 µM (168 GPCRs [16]; P2RY2, Antagonist, 1 uM): 5.4%; activity at 10 µM (168 GPCRs [17]; Antagonist mode, 10 uM): -1.4%; activity at 1 µM (168 GPCRs [17]; Antagonist, 1 uM): 0.7%; activity at 10 µM (168 GPCRs [18]; Antagonist mode, 10 uM): 0%; activity at 1 µM (168 GPCRs [18]; Antagonist, 1 uM): 0.9%; activity at 10 µM (168 GPCRs [19]; Antagonist mode, 10 uM): 13.2%; activity at 1 µM (168 GPCRs [19]; Antagonist, 1 uM): 10.3%
